Laboratory results: patent US6384222B1, “N-benzenesulfonyl-L-proline compounds, preparation method and method for using the compounds in therapy” (Fournier Industrie et Sante, priority 1997, dated 2002)

Legend:
[1] = target: T1, bradykinin B2 receptor (Cavia porcellus, UniProt O70526); assay: Inhibition of [3H]-bradykinin binding to guinea-pig ileum membranes; conditions: test compound 10^-6 M, [3H]-bradykinin 120 pM, 90 min at 20° C.
T1 construct: Ileum segments are isolated from male guinea-pigs; from tissue; host or cells: guinea-pig ileum (Dunkin-Hartley strain; animals from Iffa Credo)
T1 sequence (O70526 1-372): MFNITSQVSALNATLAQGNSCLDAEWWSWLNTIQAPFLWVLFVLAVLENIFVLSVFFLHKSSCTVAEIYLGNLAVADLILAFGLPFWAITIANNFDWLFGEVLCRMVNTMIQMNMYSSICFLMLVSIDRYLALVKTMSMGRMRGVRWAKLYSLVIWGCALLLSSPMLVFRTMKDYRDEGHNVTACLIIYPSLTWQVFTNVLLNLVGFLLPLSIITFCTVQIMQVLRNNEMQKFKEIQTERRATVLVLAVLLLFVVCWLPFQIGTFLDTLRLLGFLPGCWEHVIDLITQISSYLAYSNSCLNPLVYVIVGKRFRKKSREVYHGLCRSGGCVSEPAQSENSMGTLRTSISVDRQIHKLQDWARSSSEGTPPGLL
Method: The following pharmacological test is used: Ileum segments are isolated from male guinea-pigs [of the Dunkin-Hartley strain (Iffa Credo, l'Arbresle, France)] and ground in the following TES buffer: TES 25 mM, 1,10-phenanthroline 1 mM (pH 6.8), bacitracin 140 μg/ml, BSA 1 g/l. The membranes are then isolated by centrifugation (18,000 rpm; 20 min 4° C.). The binding studies are carried out in this TES buffer using [^3H]-bradykinin (120 pM) and 50 μg of membrane protein per test (final volume 500 μl) with an equilibrium time of 90 min at 20° C. The percentage inhibition of the binding of [^3H]-bradykinin is then determined in the presence of one of the test compounds according to the invention at a concentration of 10^−6 M.
The results obtained from these tests (shown as “activity”) are collated in Table I below with reference to the Examples given in the description. In this Table, the meaning of the heterocyclic radicals Q is given in the notes and the nature of the salts is indicated by the abbreviations Chl in the case of a hydrochloric acid salt and Ms in the case of a methanesulfonic acid salt.

[2] = target: T1, bradykinin B2 receptor; assay: Antagonism of bradykinin-induced B2 receptor activation on guinea-pig ileum (pKB, Pruneau et al.); conditions: antagonism of bradykinin at B2 receptor
Source text: The compounds according to the invention have an antagonistic effect towards the bradykinin B2 receptor (they inhibit the activation of the B2 receptors which is induced by bradykinin). […] The experimental results, evaluated by the pKB described in the above publication, are reported in the summary Table.

Row | Structure (SMILES) | Activity % (percentage inhibition of the binding of [3H]-bradykinin) [1] [%] | pKB [2]
1 | CS(=O)(=O)O.CS(=O)(=O)O.Cc1cc(=O)n2cccc(OCc3c(Cl)ccc(S(=O)(=O)N4CCC[C@H]4C(=O)NCCCNC(=O)c4ccc(C(=N)N)cc4)c3Cl)c2n1 [Example 30, 1-[[3-[[2-Methyl-4H-pyrido[1,2-a]pyrimidin-9-yl-4-one]oxymethyl]-2,4-dichlorophenyl]sulfonyl]-N-[3-[[4-(aminoiminomethyl)benzoyl]amino]propyl]-2(S)-pyrrolidinecarboxamide Bis(methanesulfonate)] | 99.3 | 7.9
2 | CS(=O)(=O)O.CS(=O)(=O)O.Cc1cc(=O)n2cccc(OCc3c(Cl)ccc(S(=O)(=O)N4CCC[C@H]4C(=O)N4CCN(C(=O)c5ccc(C(=N)N)cc5)CC4)c3Cl)c2n1 [Example 33] | 96 | 7.8
3 | CS(=O)(=O)O.CS(=O)(=O)O.Cc1nc2c(OCc3c(Cl)ccc(S(=O)(=O)N4CCC[C@H]4C(=O)NCCCNC(=O)c4ccc(C(=N)N)cc4)c3Cl)cccn2c1Cl [Example 38, 1-[[3-[[3-Chloro-2-methylimidazo[1,2-a]pyridin-8-yl]oxymethyl]-2,4-dichlorophenyl]sulfonyl]-N-[3-[[4-(aminoimiomethyl)benzoyl]amino]propyl]-2(S)-pyrrolidinecarboxamide Bis(methanesulfonate)] | 100 | 
4 | CS(=O)(=O)O.CS(=O)(=O)O.Cc1nc2c(OCc3c(Cl)ccc(S(=O)(=O)N4CCC[C@H]4C(=O)N4CCN(C(=O)c5ccc(C(=N)N)cc5)CC4)c3Cl)cccn2c1Cl [Example 41] | 100 | 
5 | CC(=O)c1c(C)nc2c(OCc3c(Cl)ccc(S(=O)(=O)N4CCC[C@H]4C(=O)NCCCNC(=O)c4ccc(C(=N)N)cc4)c3Cl)cccn12.CS(=O)(=O)O.CS(=O)(=O)O [Example 44, 1-[[3-[[3-Acetyl-2-methylimidazo[1,2-a]pyridin-8-yl]oxymethyl]-2,4-dichlorophenyl]sulfonyl]-N-[3-[[4-(aminoiminomethyl)benzoyl]amino]propyl]-2(S)-pyrrolidinecarboxamide Bis(methanestilfonate)] | 100 | 
